Columns and labels:
[1] = system: HLF; test: HLF contraction of a collagen gel; type: cell-based, human; settings: 100 nM
Method: Data were analyzed using one-way ANOVA, followed by post-hoc Tukey test (n=3; *p<0.01).
(§1) To determine whether the nontargeted version of PI3Ki1 might enter human lung fibroblasts and inhibit PI3K activity, HLF-FAP cells were incubated for 24 h with either omipalisib or PI3Ki1 and then the impact on TGFβ1 stimulation, including phosphorylation of Akt, collagen synthesis, contraction of a collagen gel, and apoptosis of myofibroblasts were examined. […] Moreover, nontargeted PI3Ki1suppressed collagen synthesis with better potency than omipalisib, displaying an IC50˜10 nM (FIG. 4C).

[2] = system: TGFβ1-stimulated HLF cells; test: Collagen synthesis (Col.1/GAPDH) in TGFβ1-stimulated HLF cells; type: cell-based; settings: Homo sapiens, TGFβ1 10 ng/mL, 24 h, read-out: IC50 of suppression of collagen synthesis
Method: (§2) Lysates were collected and analyzed for the indicated proteins by Western blotting, wherein pAkt (S473) is phosphorylated protein kinase B, Akt is protein kinase B, Col.1 is collagen 1, αSMA is α-smooth muscle actin, pSMAD2 is phosphor-SMAD2 kinase, SMAD2 is mothers against decapentaplegic homolog 2, and GAPDH is glyceraldehyde 3-phosphate dehydrogenase.
as §1
(§3) Serum starved confluent HLF cells were co-incubated in medium containing 10 ng/ml TGFβ1 with or without the indicated concentrations of PI3K inhibitors for 24 hours. Cells were harvested and lysed for Western blot analysis. Following sodium dodecyl sulphate polyacrylamide gel electrophoresis and blocking, membranes were incubated with antibodies to detect pSMAD2 Ser465/467 (#3101, Cell Signalling Technology), or pAkt Ser473 (#4060, Cell signalling Technology), and signals were visualized with ECL Western Blot Detection Reagents (GE Healthcare). […]

[3] = system: PI3K; test: Western blot of Akt phosphorylation in TGFβ1-stimulated human IPF fibroblasts; type: cell-based; settings: 3, 9, 27 or 81 min incubation
Method: After replacing the medium with inhibitor-free medium, the cells were cultured for an additional 22 hours, lysed with phosphatase inhibitor containing cell lysis solution, and analyzed for the indicated proteins by Western blotting (n=3).
After an additional 24-hour incubation, cells were lysed and the indicated proteins were analyzed by Western blotting (n=3).
Random/zed shRNA (shCTL) served as a control (n=2).
FIGS. 8A-8B are representative Western blots showing that FAP-targeted PI-3 Kinase inhibitor (FAPL-PI3Ki1) suppresses phosphorylation of Akt in IPF fibroblasts.
Firstly, primary lung fibroblasts from an IPF patient were stimulated for 24 h with TGFβ1 (to activate them to a FAP-expressing state) and then incubated for 2 h with increasing concentrations of FAPL-PI3Ki1, in the presence or absence of 100-fold excess FAPL to block unoccupied FAP sites.
Secondly, IPF lung fibroblasts were stimulated with TGFβ1 and then incubated for different durations with either FAPL-targeted or nontargeted PI3Ki1, followed by replacement of the culture media with inhibitor-free media (FIG. 7B and FIGS. 8A-8B). The anticipation was that FAP-targeted PI3Ki1 would be retained by FAP on FAP-expressing cells during short incubation times, whereas nontargeted PI3Ki1would not be captured by FAP and would subsequently be washed away when the media was changed. […]

[4] = system: HLF cells; test: Caspase 3 and 7 activities in HLF cells (drug-induced apoptosis); type: cell-based
Method: The experiments in panels A-E have been reproduced three times, each with three independent samples, n=3).
as §1

[5] = system: PI3K; test: Western blot of Akt phosphorylation in TGFβ1-stimulated HLF cells; type: cell-based, human; set-up: inhibition of Akt phosphorylation on serine 473: dose or concentration left out as unconfirmed
Method: as §2, §1, §3

[6] = system: IPF fibroblasts; test: Molecular crowding assay for collagen in IPF fibroblasts; type: cell-based, human; settings: 100 nM, 2 h, then inhibitor-free media with TGFβ1
Method: FIG. 7E and FIG. 7F show assay of collagen biosynthesis (green channel) using a molecular crowding assay (0.1% DMSO vehicle was constant for all experimental conditions). IPF fibroblasts were treated with 100 nM omipalisib, PI3Ki1 or FAPL-PI3Ki1for 2 hours, after which the media were removed and the fibroblasts were further stimulated for 48 h with media containing TGFβ1 (10 ng/mL). Cell counts were obtained from DAPI counterstaining (blue channel). Data were analyzed using one-way ANOVA, followed by post-hoc Tukey test (n=3; *p.-(0.05).
Next, the FAP-targeted PI-3 kinase inhibitors were tested to determine if they might suppress collagen formation by human IPF fibroblasts. For this purpose, TGFβ1-stimulated IPF lung fibroblasts were stimulated for 2 h with omipalisib, PI3Ki1, or FAPL-PI3Ki1, followed by replacement of the inhibitor-containing media with inhibitor-free growth media and continued incubation for 46 h. […] Importantly, this concurrent suppression of both mTOR and PI3K activity should be very beneficial to the desired therapy, since collagen synthesis associated with pathogenic fibrosis can be induced by both pathways.
Confluent IPF fibroblasts (4000 cells/well) were cultured in 96-well plates in DMEM containing 0.4% fetal calf serum, ascorbic acid (100 μM), and mixed Ficoll 70 and Ficoll 400 as molecular crowding agents. […]

Structure (SMILES)	inhibition of TGFβ1 stimulated fibroblast contraction of a collagen gel [1]	IC50 [2] [nM]	pAkt after short incubation and replacement with inhibitor-free media [3]	caspase activity ([4]; concentrations below 100 nM)	fibroblast apoptosis (caspase 3 and 7 activation) ([4]; increasing concentrations)	inhibition of Akt phosphorylation on serine 473 [5]	IC50 ([5]; Homo sapiens, HLF, TGFβ1 10 ng/mL, 24 h, read-out: IC50 of inhibition of phosphorylation of Akt) [nM]	biosynthesis of collagen [6]
COc1ncc(-c2ccc3nccc(-c4ccc(CO)nc4)c3c2)cc1NS(=O)(=O)c1ccc(F)cc1F [PI3Ki1]	reduce TGFβ1 induced collagen remodeling	~10	no diminution in pAkt expression	weak induction of caspase activity	only promoted fibroblast cell death at concentrations much higher than those required to prevent collagen synthesis	nearly complete inhibition	~1	only moderately inhibited
COc1ncc(-c2ccc3nccc(-c4ccnnc4)c3c2)cc1NS(=O)(=O)c1ccc(F)cc1F [omipalisib, reference compound]								only moderately inhibited

Reference: patent US20230158153A1, “PI3 KINASE INHIBITORS AND USES THEREOF” (Purdue Research Foundation, priority 2020, published 2023)
